Experimental data published in paper PMC7722752, “First-in-human Phase 1 open label study of the BET inhibitor ODM-207 in patients with selected solid tumours” (British Journal of Cancer, 2020).
Where two headings read alike, the source gives them in different places.

Legend:
[1] = Phase 1 study: plasma pharmacokinetics and food effect; assay type: in vivo, human; settings: for metabolite/parent ratio based in AUC(0-t): main metabolite = demethylation product
Description: All patients provided written informed consent.

platelet count = assay: Phase 1 study: platelet count as pharmacodynamic biomarker; settings: in vivo
Description: Platelet count was chosen as a pharmacodynamic biomarker based on the observed robust correlation between BET inhibitor exposure and thrombocytopaenia in preclinical and clinical studies.[13],[14]

selected solid tumours = assay: Phase 1 study: anti-tumour activity (RECIST 1.1, PCWG3, Lugano); assay type: in vivo, human
Description: (§1) Response was assessed using RECIST 1.1 for patients with advanced solid tumours,[20] Prostate Cancer Working Group 3 criteria (PCWG3) for castrate-resistant prostate cancer[21] and Lugano criteria for non-Hodgkin lymphoma.[22]
Efficacy evaluation was performed on all patients who received two or more cycles of treatment (≥8 weeks).

[2] = system: patients with selected solid tumours
Description: The study design contained two parts: (1) dose escalation in patients with advanced solid tumours with an innovative single dose accelerated titration procedure in the first cohort (1A), (2) evaluation of food effect on bioavailability (1B). The single-dose accelerated titration procedure in the first cohort involved comparison of measured pharmacokinetic parameters in the first cohort of patients against preclinical models to evaluate whether exposure was within the target range. If the measured exposure was outside the target range (below or above), the protocol allowed for dose adjustment. Dose escalation was performed using a traditional 3 + 3 schedule. […] The relevant national authorities provided regulatory approval and local institutional review boards approved the protocol. All study procedures were conducted in accordance with the Declaration of Helsinki and good clinical practice. All patients provided written informed consent.
The starting dose was chosen as it was reasonably expected to be both pharmacologically active and safe and tolerable. The target exposure for the starting dose was estimated from exposures observed in pre-clinical anti-tumour activity and safety studies. The estimated human dose required was predicted by both human equivalent dose calculations and physiologically-based pharmacokinetic modelling. […] Treatment was taken in the ambulatory setting, except for hospital admissions required for pre-specified study-related procedures.
as §1
Safety analyses included all patients who received any doses of treatment. Efficacy evaluation was performed on all patients who received two or more cycles of treatment (≥8 weeks). Data points were excluded from relevant pharmacokinetic and platelet count analyses if samples were taken when the patient was on treatment interruption or within 3 days after resumption of treatment. […] Pre-dose total exposure of <3500 ng/mL was not expected to have significant BET inhibition effect and a level of ≥5000 ng/mL was expected to confer BET inhibition.

BET = system: BET; set-up: method as in earlier work; settings: preclinical; cited from earlier work
[3] = system: breast cancer and leukaemia and prostate cancer xenograft models; set-up: method as in earlier work; settings: preclinical; cited from earlier work
[4] = system: non-BET family bromodomains; settings: preclinical; cited from earlier work
[5] = cohort 1A-1 0.6 mg/kg (50 mg) (n = 3)
[6] = cohort 1A-2 1.3 mg/kg (100 mg) (n = 7)

With COc1cc2c(cc1-c1c(C)noc1C)cc(C)c(=O)n2Cc1ccccn1 [ODM-207] the “metabolite/parent ratio based in AUC(0-t)” value ([1]; day 1) was 0.1–0.2, the “metabolite/parent ratio based in AUC(0-t)” value ([1]; day 15) was 0.1–0.5 and the exposure versus dose ([1]; dose escalation 0.6–2.0 mg/kg) was “dose proportional exposure”. The “Plasma exposure (AUC0-24) under fed condition versus fasting condition” value ([1]; food effect cohort, single dose, light breakfast vs overnight fasting) was 1.5 fold, the “increase of mean AUC(0-t) between day 1 and day 15 of dosing” value ([1]; n = 28, 95% CI 2.9, 3.8) was 3.4 fold and the “absorption and elimination (plasma pharmacokinetics)” value ([1]; oral) was “slow absorption and elimination”. For the same compound, the “correlation between plasma exposure and changes in platelet count over time” value (platelet count) was “strong correlation”, the “recovery of platelet count upon treatment interruption” value (platelet count) was “Prompt recovery” and the “non-CR/non-PD (non-measurable disease) as best response” value (selected solid tumours; 21 evaluable patients) was 6 (29%) patients. The “progressive disease (PD) as best response” value (selected solid tumours; 21 evaluable patients) was 9 (43%) patients, the “stable disease (SD) as best response” value (selected solid tumours; 21 evaluable patients) was 29% and the “partial or complete response (PR, CR)” value (selected solid tumours; 21 evaluable patients (≥ 8 weeks of treatment), RECIST) was “None had a partial or complete response”. The “patients with NMC with SD as best response” value (selected solid tumours; NUT midline carcinoma, four patients) was “One out of four”, the “correlation between progression-free survival and increased exposure” value (selected solid tumours; in vivo) was “no correlation” and the “median (range) duration of SD” value (selected solid tumours; in vivo) was 16.3 (8.0–23.0) weeks. For the same compound, the median progression-free survival (selected solid tumours; in vivo) was 2.2 months, the “progression-free survival, range” value (selected solid tumours; in vivo) was 0.5–9.7 months and the “Treatment discontinuation due to disease progression” value (selected solid tumours; of 35 treated patients) was 28 (80%) patients. The “decline in PSA below baseline level” value (selected solid tumours; prostate cancer patients) was “None of the prostate cancer patients showed decline in PSA below baseline level”, the “Related AE: Asthenia” value ([2]; GRADE 1, Total (n = 35)) was 3 (8.6) n (%) and the “Related AE: Decreased appetite” value ([2]; GRADE 1, Total (n = 35)) was 12 (34) n (%). For the same compound, the “Related AE: Diarrhoea” value ([2]; GRADE 1, Total (n = 35)) was 9 (26) n (%), the “Related AE: Dysgeusia” value ([2]; GRADE 1, Total (n = 35)) was 4 (11) n (%) and the “Related AE: Fatigue” value ([2]; GRADE 1, Total (n = 35)) was 9 (26) n (%). The “Related AE: Headache” value ([2]; GRADE 1, Total (n = 35)) was 7 (20) n (%), the “Related AE: Nausea” value ([2]; GRADE 1, Total (n = 35)) was 13 (37) n (%) and the “Related AE: Thrombocytopaenia” value ([2]; GRADE 1, Total (n = 35)) was 15 (43) n (%). The “Related AE: Vomiting” value ([2]; GRADE 1, Total (n = 35)) was 7 (20) n (%), the “Related AE: Weight loss” value ([2]; GRADE 1, Total (n = 35)) was 4 (11) n (%) and the “Related AE: Asthenia” value ([2]; GRADE 2, Total (n = 35)) was 3 (8.6) n (%). For the same compound, the “Related AE: Decreased appetite” value ([2]; GRADE 2, Total (n = 35)) was 8 (23) n (%), the “Related AE: Diarrhoea” value ([2]; GRADE 2, Total (n = 35)) was 5 (14) n (%) and the “Related AE: Dysgeusia” value ([2]; GRADE 2, Total (n = 35)) was 3 (8.6) n (%). For the same compound, the “Related AE: Fatigue” value ([2]; GRADE 2, Total (n = 35)) was 6 (17) n (%), the “Related AE: Headache” value ([2]; GRADE 2, Total (n = 35)) was 3 (8.6) n (%) and the “Related AE: Nausea” value ([2]; GRADE 2, Total (n = 35)) was 4 (11) n (%). The “Related AE: Thrombocytopaenia” value ([2]; GRADE 2, Total (n = 35)) was 8 (23) n (%), the “Related AE: Vomiting” value ([2]; GRADE 2, Total (n = 35)) was 3 (8.6) n (%) and the “Related AE: Weight loss” value ([2]; GRADE 2, Total (n = 35)) was 1 (2.9) n (%). For the same compound, the “Related AE: Fatigue” value ([2]; GRADE 3, Total (n = 35)) was 2 (5.7) n (%), the “Related AE: Nausea” value ([2]; GRADE 3, Total (n = 35)) was 3 (8.6) n (%) and the “Related AE: Thrombocytopaenia” value ([2]; GRADE 3, Total (n = 35)) was 4 (11) n (%). For the same compound, the “Related AE: Weight loss” value ([2]; GRADE 3, Total (n = 35)) was 1 (2.9) n (%), the “Related AE: Thrombocytopaenia” value ([2]; GRADE 4, Total (n = 35)) was 1 (2.9) n (%) and the “AEs leading to dose reduction” value ([2]; Total (n = 35)) was 4 (11) n (%). For the same compound, the “AEs leading to dosing interruption” value ([2]; Total (n = 35)) was 19 (54) n (%), the DLTs ([2]; Total (n = 35)) was 1 (2.9) n (%) and the “Grade ≥ 3 AEs” value ([2]; Total (n = 35)) was 19 (54) n (%). The “Related SAEs” value ([2]; Total (n = 35)) was 3 (8.6) n (%), the SAEs ([2]; Total (n = 35)) was 14 (40) n (%) and the “Common AE: nausea” value ([2]; any grade, n = 35) was 66%. The “AEs leading to dosing interruption” value [2, 5] was 2 (67) n (%), the “AEs leading to study discontinuation” value [2, 5] was 1 (33) n (%) and the “AEs leading to dosing interruption” value [2, 6] was 4 (57) n (%). For the same compound, the DLTs [2, 6] was 1 (14) n (%), the “Grade ≥ 3 AEs” value [2, 6] was 3 (43) n (%) and the SAEs ([2]; cohort 1A-2 1.3 mg/kg (100 mg) (n = 7), oral once daily) was 2 (29) n (%). The “AEs leading to dosing interruption” value ([2]; cohort 1A-3 1.5 mg/kg (n = 5)) was 2 (40) n (%), the “AEs leading to study discontinuation” value ([2]; cohort 1A-3 1.5 mg/kg (n = 5)) was 2 (40) n (%) and the “Grade ≥ 3 AEs” value ([2]; cohort 1A-3 1.5 mg/kg (n = 5)) was 2 (40) n (%). The SAEs ([2]; cohort 1A-3 1.5 mg/kg (n = 5)) was 2 (40) n (%), the “AEs leading to dose reduction” value ([2]; cohort 1A-4 2 mg/kg (n = 6)) was 2 (33) n (%) and the “AEs leading to dosing interruption” value ([2]; cohort 1A-4 2 mg/kg (n = 6)) was 5 (83) n (%). For the same compound, the “AEs leading to study discontinuation” value ([2]; cohort 1A-4 2 mg/kg (n = 6)) was 1 (17) n (%), the “Grade ≥ 3 AEs” value ([2]; cohort 1A-4 2 mg/kg (n = 6)) was 4 (67) n (%) and the “Related SAEs” value ([2]; cohort 1A-4 2 mg/kg (n = 6)) was 2 (33) n (%). For the same compound, the SAEs ([2]; cohort 1A-4 2 mg/kg (n = 6)) was 3 (50) n (%), the “AEs leading to dose reduction” value ([2]; cohort 1B-1 1.1 mg/kg (n = 10)) was 1 (10) n (%) and the “AEs leading to dosing interruption” value ([2]; cohort 1B-1 1.1 mg/kg (n = 10)) was 4 (40) n (%). The “AEs leading to study discontinuation” value ([2]; cohort 1B-1 1.1 mg/kg (n = 10)) was 3 (30) n (%), the “Grade ≥ 3 AEs” value ([2]; cohort 1B-1 1.1 mg/kg (n = 10)) was 6 (60) n (%) and the SAEs ([2]; cohort 1B-1 1.1 mg/kg (n = 10)) was 3 (30) n (%). The “AEs leading to dose reduction” value ([2]; cohort 1B-2 1.4 mg/kg (n = 4)) was 1 (25) n (%), the “AEs leading to dosing interruption” value ([2]; cohort 1B-2 1.4 mg/kg (n = 4)) was 2 (50) n (%) and the “AEs leading to study discontinuation” value ([2]; cohort 1B-2 1.4 mg/kg (n = 4)) was 2 (50) n (%). The “Grade ≥ 3 AEs” value ([2]; cohort 1B-2 1.4 mg/kg (n = 4)) was 4 (100) n (%), the “Related SAEs” value ([2]; cohort 1B-2 1.4 mg/kg (n = 4)) was 1 (25) n (%) and the SAEs ([2]; cohort 1B-2 1.4 mg/kg (n = 4)) was 4 (100) n (%). The “highest studied dose achieved” value ([2]; due to cumulative toxicity beyond the DLT treatment window) was 2 mg/kg, the “Common AE: anorexia” value ([2]; n = 35) was 49% and the “Common AE: diarrhoea” value ([2]; n = 35) was 40%. The “Common AE: fatigue” value ([2]; n = 35) was 43%, the “Common AE: headache” value ([2]; n = 35) was 37% and the “Common AE: vomiting” value ([2]; n = 35) was 40%. For the same compound, the “Common AE: weight loss” value ([2]; n = 35) was 23%, the deaths on study ([2]; n = 35) was “five deaths on study, all of which were considered not related to ODM-207” and the “treatment-related grade ≥3 adverse event: fatigue” value ([2]; n = 35) was 5.7%. For the same compound, the “treatment-related grade ≥3 adverse event: nausea” value ([2]; n = 35) was 8.6%, the “treatment-related grade ≥3 adverse event: thrombocytopaenia” value ([2]; n = 35) was 14.3% and the “Treatment discontinuation due to AEs” value ([2]; of 35 treated patients) was 5 (14%) patients. For the same compound, the dose-limiting toxicity observed ([2]; one patient, 100 mg (1.9 mg/kg), cohort 1A-2) was “intolerable grade 3 fatigue”, the “maximum tolerated dose (MTD)” value ([2]; oral once daily, 28-day cycle, based upon observed adverse events beyond the DLT period) was 2 mg/kg and the “patients who experienced a treatment-related AE” value ([2]; overall, n = 35) was 31 (89%) patients. For the same compound, the BET inhibition potency (BET) was “highly potent”, the tumour growth inhibition [3] was “preclinical evidence of tumour growth inhibition” and the “cross-reactivity with non-BET family bromodomains” value [4] was “minimal cross-reactivity”.
